Here are results for two molecules from article PMC10363774 (RSC Advances, 2023).

One experiment relates to IL-6. The experiment is described as follows: In vitro immunomodulatory assay, IL-6. It is filed as cell-based, human. The settings on record: HCT-116 cells, 24 h, at the IC50 concentration.
Experiment [1] concerns HCT-116 cells (colon cancer). The experiment is described as follows: MTT anti-proliferative assay, HCT-116. It is filed as cell-based. The settings on record: Homo sapiens, HCT-116, 48 h, read-out: In vitro cytotoxicity IC50 HCT 116. In general terms: Formazan colour is commonly taken as a measure of viable cells.
The subject of experiment [2] is MCF-7 cells (breast cancer). The experiment is described as follows: MTT anti-proliferative assay, MCF-7. It is filed as cell-based. The following applies: Homo sapiens, MCF7, 48 h, read-out: In vitro cytotoxicity IC50 MCF-7.

`C[C@@H]1C[C@H]2[C@@H]3CCC4=CC(=O)C=C[C@]4(C)[C@@]3(F)[C@@H](O)C[C@]2(C)[C@@]1(O)C(=O)CO` [Dexamethasone]: the “Pro-inflammatory factors inhibition IL-6” value with IL-6 was 93.15 pg per mL %. With `CNC(=O)c1cc(Oc2ccc(NC(=O)Nc3ccc(Cl)c(C(F)(F)F)c3)cc2)ccn1` [Sorafenib], the half-inhibitory concentration (IC50) in experiment [1] was 8.96 ± 0.05 µM; in experiment [2], 11.83 ± 0.07 µM.

As a reminder, the IC50 is the concentration at which inhibition is half-maximal.
